Test results: patent US5637501A, “Apparatus for automatically testing the antibiotic sensitivity of a paraffinophilic microorganism” (Infectech, Inc., priority 1995, dated 1997)
Where a name gives a salt, the structure may show the parent alone. Read-outs that look alike come from different tables or passages of the source.

Test system: MAI
Experiment: antibiotic sensitivity (MIC) of MAI strains, paraffin slide culture and microliter assays
Assay type: cell-based, Mycobacterium avium-intracellulare
Parameters: key: NG: No Growth
Excerpt: The present invention has met the above-described need. In one embodiment, it provides a method of automatically testing the sensitivity of a paraffinophilic microorganism to different antimicrobial agents, such as antibiotics, and concentrations thereof, by providing a plurality of receptacles, each containing an amount of liquid medium, an antimicrobial agent to be tested and the microorganism to be tested. In each of the receptacles is placed a slide containing a paraffin source. The receptacles are then incubated, after which a light scatter sensing means automatically and sequentially monitors the extent of microorganism growth on the slides. The extent of colony growth is employed to determine which antimicrobial agent in which concentration is effective to resist growth of the microorganism. A preferred light scatter sensing means is a nephelometer.
Referring specifically to FIG. 1, there is shown a preferred embodiment of the present invention usable in a method of automatically testing the sensitivity of a pure culture of a microorganism to different antimicrobial agents and concentrations thereof. In this embodiment, a microorganism, which may have been previously speciated as by the technique taught in U.S. Pat. No. 5,153, 119, has been introduced into a plurality of receptacles, each containing an amount of liquid medium and antimicrobial agent to be tested. A paraffin slide is introduced into each of the receptacles which are subsequently incubated. The receptacles 2-22 (even numbers only) are fixedly secured to an elongated, substantially rigid movable carrier member 26, such that the receptacles 2-22 will be translated therewith in the direction shown by the arrow A. The carrier member 26 may be made of any suitable material, such as aluminum, steel, stainless steel, or resinous plastic, for example. The receptacles 2-22, respectively, contain slides 32-52 (even numbers only). The slides 32-52 are fixedly secured, respectively, within receptacles 2-22 which may test tubes. The slides 32-52 are generally oriented so as to have their elongated direction aligned with the direction of travel of the carrier 26. As the carrier moves in the direction of arrow A, the slides 2-22 will sequentially be positioned in operative relationship to the light scatter sensing means which consists of light source 60, which directs a light beam toward light detector 62. In the preferred embodiment, a beam of visible light from light source 60 will impinge upon slide 32, with the growth of the microorganism thereon producing a corresponding scatter of light which is received by the light receiving sensor 62 and converts the received light into an appropriate output electrical signal which will be delivered to computer means 64. The computer means 64, in turn, provides output to output means 66, which may conveniently be a display, such as a cathode ray tube or a hard copy printer, for example. The degree of light scatter will be related to the extent of microorganism growth with light scatter increasing as growth on the slide increases.
The computer means 64 may be a general purpose digital microprocessor. It may be programmed in a manner readily known to those skilled in the art to sequentially compare the light scatter value of each slide 32-52 with that of a control slide and to provide an output to output means 66, such as a visual screen display or hard copy, with or without prior enhancement, which indicates the difference between the control slide and the specific slides containing the same pure culture of a paraffinophilic microorganism, but exposed to different concentrations of different or the same antimicrobial agents, such an antibiotics. In this manner, there is provided the minimal concentration level of a specific antimicrobial agent that must be used to control growth of the microorganism. Also, the minimum bactericidal concentration may be determined. […]

O=C(O)c1cn(C2CC2)c2cc(N3CCNCC3)c(F)cc2c1=O [ciprofloxacin-HCl]
Days to Confluency (Exp. Series II, strain 1): 9 days
Days to Confluency (Exp. Series II, strain 2): 9 days
Days to Confluency (Exp. Series II, strain 3): NG
MIC (Exp. Series II, strain 3): NG
Days to Confluency (Exp. Series II, strain 4): 10 days
Days to Confluency (Exp. Series II, strain 5): 9 days
Days to Confluency (Exp. Series II, strain 6): 10 days
Days to Confluency (Exp. Series II, strain 7): 10 days
Days to Confluency (Exp. Series II, strain 8): 9 days
Days to Confluency (Exp. Series II, strain 9): 10 days
Days to Confluency (Exp. Series II, strain 10): 7 days
Days to Confluency (Exp. Series II, strain 11): 7 days
Days to Confluency (Exp. Series II, strain 12): 7 days
Days to Confluency (Exp. Series II, strain 13): 8 days
Days to Confluency (Exp. Series II, strain 14): 7 days
Days to Confluency (Exp. Series II, strain 15): 7 days
Days to Confluency (Exp. Series II, strain 16): 7 days
Days to Confluency (Exp. Series III, strain 1): 7 days
Days to Confluency (Exp. Series III, strain 2): 8 days
Days to Confluency (Exp. Series III, strain 3): 8 days
Days to Confluency (Exp. Series III, strain 4): 9 days
Days to Confluency (Exp. Series III, strain 5): 8 days
Days to Confluency (Exp. Series III, strain 6): 9 days
Days to Confluency (Exp. Series III, strain 7): 8 days
Days to Confluency (Exp. Series III, strain 8): 8 days
Days to Confluency (Exp. Series III, strain 9): 8 days
Days to Confluency (Exp. Series III, strain 10): 6 days
Days to Confluency (Exp. Series III, strain 11): 6 days
Days to Confluency (Exp. Series III, strain 12): 6 days
Days to Confluency (Exp. Series III, strain 13): 7 days
Days to Confluency (Exp. Series III, strain 14): 7 days
Days to Confluency (Exp. Series III, strain 15): 7 days
Days to Confluency (Exp. Series III, strain 16): 6 days
MIC (Mycobacterium avium-intracellulare, Exp. Series II, strain 1, read-out: MIC): 3.6 µg/mL
MIC (Mycobacterium avium-intracellulare, Exp. Series II, strain 2, read-out: MIC): 18.2 µg/mL
MIC (Mycobacterium avium-intracellulare, Exp. Series II, strain 4, read-out: MIC): 3.6 µg/mL
MIC (Mycobacterium avium-intracellulare, Exp. Series II, strain 5, read-out: MIC): 7.3 µg/mL
MIC (Mycobacterium avium-intracellulare, Exp. Series II, strain 6, read-out: MIC): 3.6 µg/mL
MIC (Mycobacterium avium-intracellulare, Exp. Series II, strain 7, read-out: MIC): 3.6 µg/mL
MIC (Mycobacterium avium-intracellulare, Exp. Series II, strain 8, read-out: MIC): 3.6 µg/mL
MIC (Mycobacterium avium-intracellulare, Exp. Series II, strain 9, read-out: MIC): 3.6 µg/mL
MIC (Mycobacterium avium-intracellulare, Exp. Series II, strain 10, read-out: MIC): 14.5 µg/mL
MIC (Mycobacterium avium-intracellulare, Exp. Series II, strain 11, read-out: MIC): 7.3 µg/mL
MIC (Mycobacterium avium-intracellulare, Exp. Series II, strain 12, read-out: MIC): 10.9 µg/mL
MIC (Mycobacterium avium-intracellulare, Exp. Series II, strain 13, read-out: MIC): 18.2 µg/mL
MIC (Mycobacterium avium-intracellulare, Exp. Series II, strain 14, read-out: MIC): 18.2 µg/mL
MIC (Mycobacterium avium-intracellulare, Exp. Series II, strain 15, read-out: MIC): 7.3 µg/mL
MIC (Mycobacterium avium-intracellulare, Exp. Series II, strain 16, read-out: MIC): 7.3 µg/mL
MIC (Mycobacterium avium-intracellulare, Exp. Series III, strain 1, read-out: MIC): 3.6 µg/mL
MIC (Mycobacterium avium-intracellulare, Exp. Series III, strain 2, read-out: MIC): 14.5 µg/mL
MIC (Mycobacterium avium-intracellulare, Exp. Series III, strain 3, read-out: MIC): 3.6 µg/mL
MIC (Mycobacterium avium-intracellulare, Exp. Series III, strain 4, read-out: MIC): 3.6 µg/mL
MIC (Mycobacterium avium-intracellulare, Exp. Series III, strain 5, read-out: MIC): 7.3 µg/mL
MIC (Mycobacterium avium-intracellulare, Exp. Series III, strain 6, read-out: MIC): 7.3 µg/mL
MIC (Mycobacterium avium-intracellulare, Exp. Series III, strain 7, read-out: MIC): 7.3 µg/mL
MIC (Mycobacterium avium-intracellulare, Exp. Series III, strain 8, read-out: MIC): 3.6 µg/mL
MIC (Mycobacterium avium-intracellulare, Exp. Series III, strain 9, read-out: MIC): 3.6 µg/mL
MIC (Mycobacterium avium-intracellulare, Exp. Series III, strain 10, read-out: MIC): 14.5 µg/mL
MIC (Mycobacterium avium-intracellulare, Exp. Series III, strain 11, read-out: MIC): 7.3 µg/mL
MIC (Mycobacterium avium-intracellulare, Exp. Series III, strain 12, read-out: MIC): 7.3 µg/mL
MIC (Mycobacterium avium-intracellulare, Exp. Series III, strain 13, read-out: MIC): > 18.2 µg/mL
MIC (Mycobacterium avium-intracellulare, Exp. Series III, strain 14, read-out: MIC): 14.5 µg/mL
MIC (Mycobacterium avium-intracellulare, Exp. Series III, strain 15, read-out: MIC): 7.3 µg/mL
MIC (Mycobacterium avium-intracellulare, Exp. Series III, strain 16, read-out: MIC): 3.6 µg/mL
